The text below walks through data of article PMC5108698 (Biopolymers, 2016).

“Also recorded” adds a separate entry of the source.

Data set [1] in a line: NMR characterization in solution. The data set is classed as physicochemical. Conditions: in-cell produced SFTI-1, approximately 0.2 mM, 80 mM potassium phosphate pH 6.5, 90% H2O/10% 2H2O, 298 K.
The subject of data set [2] is mammalian cells. The note with it: ref [13]; cited from earlier work.
The test system of data set [3] is cellular membranes. Conditions: ref [13]; cited from earlier work.
The conditions of data set [4]: ref [10], [12]; cited from earlier work.
In data set [5] the target is pancreatic trypsin (Sus scrofa, UniProt P00761). Description: Trypsin inhibitory assay. The data set is classed as biochemical. Conditions: recombinantly produced SFTI-1.
pancreatic trypsin, sequence (P00761 9-231): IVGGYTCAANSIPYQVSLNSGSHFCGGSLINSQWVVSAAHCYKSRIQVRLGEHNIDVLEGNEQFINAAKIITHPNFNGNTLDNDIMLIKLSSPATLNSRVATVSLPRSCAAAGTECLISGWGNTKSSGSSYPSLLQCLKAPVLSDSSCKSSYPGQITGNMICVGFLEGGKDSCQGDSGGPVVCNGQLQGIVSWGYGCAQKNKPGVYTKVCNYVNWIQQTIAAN
The subject of data set [6] is trypsin (trypsin-sepharose beads). Conditions: incubated with trypsin; ref [34]; cited from earlier work.

Take `CC[C@H](C)[C@@H]1NC(=O)[C@@H]2CCCN2C(=O)[C@@H]2CCCN2C(=O)[C@H]([C@@H](C)CC)NC(=O)[C@H](CO)NC(=O)[C@H](CCCCN)NC(=O)[C@H]([C@@H](C)O)NC(=O)[C@@H]2CSSC[C@H](NC1=O)C(=O)N[C@@H](Cc1ccccc1)C(=O)N1CCC[C@H]1C(=O)N[C@@H](CC(=O)O)C(=O)NCC(=O)N[C@@H](CCCNC(=N)N)C(=O)N2` [SFTI-1, sunflower trypsin inhibitor 1]: the “aggregation state in solution” value in data set [1] was “monodispersed”. In addition, the “toxicity to mammalian cells” value in data set [2] was “non-toxic to mammalian cells”. Moreover, the “crossing of cellular membranes” value in data set [3] is “able to cross cellular membranes”. In addition, the “stability to thermal or enzymatic degradation” value in data set [4] is listed as “exceptional stability to thermal or enzymatic degradation”. In data set [5], the “inhibition of trypsin” value was “actively inhibit trypsin; also recorded: fully active”. For the same compound, the “equilibrium between cyclic and linear forms with trypsin” value in data set [6] was “reach equilibrium between the cyclic and the linear forms when incubated with trypsin”.
